Measured values as given in patent US11279733B2, “Peptide antibiotics” (priority 2017, dated 2022).
Like-named read-outs stand apart in the source and are kept apart here. Positions of bridges follow the written chain, without caps; N, C: chain ends. Non-standard residues stand in square brackets, D forms with d. Residues, ends and D or L forms follow the SMILES beside them. *: point of attachment. Isonicotinoyl(2-Ph) = O=C(c1ccnc(-c2ccccc2)c1)*; Decanoyl(3R-OH) = CCCCCCC[C@@H](O)CC(=O)*; dOrn = NCCC[C@@H](N)C(=O)O; dDab = NCC[C@@H](N)C(=O)O; Dab = NCC[C@H](N)C(=O)O

What was measured:
A. baumannii ATCC 19606 = settings: ATCC 19606
Method in brief: (§1)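 Mid-log cultures grown in Mueller Hinton broth at 37° C were tested by 2-fold broth microdilution at 5×10^5 CFU/mL final. Compounds were dissolved in water and tested over a final range of 32 to 0.015 μg/mL.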

A. baumannii GN_093 PmxR = settings: GN 093 PmxR
Method in brief: as §1

E. coli ATCC 25922 = settings: ATCC 25922
Method in brief: as §1

K. pneumoniae ATCC 13883 = settings: ATCC 13883
Method in brief: as §1

[1] = test system: K. pneumoniae ATCC 700603, MDR; settings: ATCC 700603
Method in brief: as §1

[2] = test system: K. pneumoniae ATCC BAA-2146, NDM-1 pos; settings: ATCC BAA-2146
Method in brief: as §1

[3] = test system: K. pneumoniae GN_102 PmxR; settings: GN 102 PmxR
Method in brief: as §1

[4] = test system: K. pneumoniae GN_106, PmxR; settings: GN 106, PmxR
Method in brief: as §1

P. aeruginosa ATCC 27853 = settings: ATCC 27853
Method in brief: as §1

[5] = test system: P. aeruginosa GN_043, PmxR
Method in brief: as §1

[6] = test system: P. aeruginosa GN_105, PmxR; settings: GN 105, PmxR
Method in brief: as §1

[7] = test system: S. aureus ATCC 25923, MSSA; settings: ATCC 25923
Method in brief: as §1

in vitro = settings: human
Method in brief: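 HK2 cells were seeded at 2000 per well in DMEM/F12 with 10% FBS and left to attach for 24 h at 37 °C, 5% CO2. They were then exposed for 24 h to 3-fold peptide dilutions starting from 600 μM solutions in quadruplicate. LDH release was read at 450 nm, and CC50 was fitted from dose-response curves.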

CCCCCCC[C@@H](O)CC(=O)N[C@@H](C)C(=O)N[C@H]1CCNC(=O)[C@H](CC(C)C)NC(=O)[C@H](CCN)NC(=O)[C@H](CCN)NC(=O)[C@H](CC(C)C)NC(=O)[C@@H](Cc2ccccc2)NC(=O)[C@H](CCN)NC1=O [compound 4950, 3(R)OH-nC9CO-L-Ala-cyc[L-Dab-L-Dab-D-Phe-L-Leu-L-Dab-L-Dab-L-Leu]] ({Decanoyl(3R-OH)}-A[Dab][Dab][dF]L[Dab][Dab]L; lactam 2-C)
8 µg/mL: MIC K. pneumoniae GN_102 PmxR [3]
16 µg/mL: MIC, K. pneumoniae ATCC 13883 (K. pneumoniae ATCC 13883) | MIC, K. pneumoniae ATCC 700603, MDR [1] | MIC, K. pneumoniae ATCC BAA-2146, NDM-1 pos [2] | MIC, P. aeruginosa ATCC 27853 (P. aeruginosa ATCC 27853) | MIC P. aeruginosa GN_043, PmxR ([5]; Table 6, polymyxin-resistant)
>32 µg/mL: MIC, A. baumannii ATCC 19606 (A. baumannii ATCC 19606) | MIC A. baumannii GN_093 PmxR (A. baumannii GN_093 PmxR) | MIC, S. aureus ATCC 25923, MSSA [7]
32 µg/mL: MIC, E. coli ATCC 25922 (E. coli ATCC 25922) | MIC K. pneumoniae GN_106, PmxR [4] | MIC P. aeruginosa GN_105, PmxR [6]
286 µM: CC50 at 24 h (in vitro)

CCCCCCC[C@@H](O)CC(=O)N[C@H](CCCN)C(=O)N[C@H]1CCNC(=O)[C@H]([C@@H](C)O)NC(=O)[C@H](CCN)NC(=O)[C@H](CCN)NC(=O)[C@H](CC(C)C)NC(=O)[C@@H](Cc2ccccc2)NC(=O)[C@H](CCN)NC1=O [compound 6396, 3(R)OH-nC9CO-D-Orn-cyc[L-Dab-L-Dab-D-Phe-L-Leu-L-Dab-L-Dab-L-Thr]] ({Decanoyl(3R-OH)}-[dOrn][Dab][Dab][dF]L[Dab][Dab]T; lactam 2-C)
>64 µg/mL: MIC A. baumannii ATCC 19606 (A. baumannii ATCC 19606) | MIC K. pneumoniae ATCC 13883 (K. pneumoniae ATCC 13883)
>32 µg/mL: MIC A. baumannii GN_093 PmxR (A. baumannii GN_093 PmxR) | MIC K. pneumoniae GN_102 PmxR [3] | MIC K. pneumoniae GN_106, PmxR [4] | MIC S. aureus ATCC 25923, MSSA [7]
16 µg/mL: MIC E. coli ATCC 25922 (E. coli ATCC 25922) | MIC K. pneumoniae ATCC 700603, MDR [1] | MIC P. aeruginosa ATCC 27853 (P. aeruginosa ATCC 27853) | MIC P. aeruginosa GN_043, PmxR ([5]; P. aeruginosa GN_043, PmxR) | MIC P. aeruginosa GN_105, PmxR [6]
32 µg/mL: MIC K. pneumoniae ATCC BAA-2146, NDM-1 pos [2]
> 300 µM: CC50 at 24 h (in vitro)

CCCCCCC[C@@H](O)CC(=O)N[C@H](CCN)C(=O)N[C@H]1CCNC(=O)[C@H](CC(C)C)NC(=O)[C@H](CCN)NC(=O)[C@H](CCN)NC(=O)[C@H](CC(C)C)NC(=O)[C@H](C)NC(=O)[C@H](CCN)NC1=O [compound 4947, 3(R)OH-nC9CO-D-Dab-cyc[L-Dab-L-Dab-L-Ala-L-Leu-L-Dab-L-Dab-L-Leu]] ({Decanoyl(3R-OH)}-[dDab][Dab][Dab]AL[Dab][Dab]L; lactam 2-C)
>32 µg/mL: MIC A. baumannii ATCC 19606 (A. baumannii ATCC 19606) | MIC A. baumannii GN_093 PmxR (A. baumannii GN_093 PmxR) | MIC E. coli ATCC 25922 (E. coli ATCC 25922) | MIC K. pneumoniae ATCC 13883 (K. pneumoniae ATCC 13883) | MIC K. pneumoniae ATCC 700603, MDR [1] | MIC K. pneumoniae ATCC BAA-2146, NDM-1 pos [2] | MIC K. pneumoniae GN_102 PmxR [3] | MIC K. pneumoniae GN_106, PmxR [4] | MIC P. aeruginosa GN_043, PmxR ([5]; P. aeruginosa GN_043, PmxR) | MIC P. aeruginosa GN_105, PmxR [6] | MIC S. aureus ATCC 25923, MSSA [7]
32 µg/mL: MIC P. aeruginosa ATCC 27853 (P. aeruginosa ATCC 27853)
213 µM: CC50 at 24 h (in vitro)

CC(C)C[C@@H]1NC(=O)[C@@H](Cc2ccccc2)NC(=O)[C@H](CCN)NC(=O)[C@@H](NC(=O)[C@@H](CCN)NC(=O)c2ccnc(-c3ccccc3)c2)CCNC(=O)[C@H]([C@@H](C)O)NC(=O)[C@H](CCN)NC(=O)[C@H](CCN)NC1=O [compound 6405, 3Phe4-PyCO-D-Dab-cyc[L-Dab-L-Dab-D-Phe-L-Leu-L-Dab-L-Dab-L-Thr]] ({Isonicotinoyl(2-Ph)}-[dDab][Dab][Dab][dF]L[Dab][Dab]T; lactam 2-C)
>32 µg/mL: MIC A. baumannii GN_093 PmxR (A. baumannii GN_093 PmxR) | MIC K. pneumoniae GN_102 PmxR [3] | MIC K. pneumoniae GN_106, PmxR [4] | MIC P. aeruginosa GN_043, PmxR ([5]; P. aeruginosa GN_043, PmxR) | MIC P. aeruginosa GN_105, PmxR [6] | MIC S. aureus ATCC 25923, MSSA [7]
>64 µg/mL: MIC A. baumannii ATCC 19606 (A. baumannii ATCC 19606) | MIC E. coli ATCC 25922 (E. coli ATCC 25922) | MIC K. pneumoniae ATCC 13883 (K. pneumoniae ATCC 13883) | MIC K. pneumoniae ATCC 700603, MDR [1] | MIC K. pneumoniae ATCC BAA-2146, NDM-1 pos [2]
8 µg/mL: MIC P. aeruginosa ATCC 27853 (P. aeruginosa ATCC 27853)
> 300 µM: CC50 at 24 h (in vitro)
